We go through 24 molecules from ChEMBL document CHEMBL1125617, “N6-substituted adenosine receptor agonists: potential antihypertensive agents” (J Med Chem, 1991).

One experiment deals with T1, Adenosine receptor A1 (Rattus norvegicus, UniProt P25099).
T1 sequence (P25099 whole entry): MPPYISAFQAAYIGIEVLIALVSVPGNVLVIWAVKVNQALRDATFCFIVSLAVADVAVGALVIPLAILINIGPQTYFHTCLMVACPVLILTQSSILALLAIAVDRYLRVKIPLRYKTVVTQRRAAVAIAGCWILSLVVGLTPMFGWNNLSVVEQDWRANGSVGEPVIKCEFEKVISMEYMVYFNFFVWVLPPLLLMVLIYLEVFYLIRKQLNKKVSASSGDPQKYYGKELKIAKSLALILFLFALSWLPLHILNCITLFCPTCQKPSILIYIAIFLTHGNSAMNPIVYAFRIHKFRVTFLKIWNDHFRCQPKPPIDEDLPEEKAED
Put plainly: Binding affinity towards adenosine A1 receptor.

In experiment [1] the test system is Rattus norvegicus. Put plainly: Antihypertensive activity measured as change in heart rate was measured for a 10-h after 10 mg/kg oral dose. The class given is functional.
Experiment [2] deals with Adenosine receptors; A1 & A2 (Rattus norvegicus) (UniProt P29276+P25099+P30543). The experiment can be described thus: Ratio of Ki values of A1 adenosine and A2 adenosine receptor. The class given is protein assay.
The subject of experiment [3] is Rattus norvegicus. Put plainly: Antihypertensive activity measured as change in blood pressure for a 10-h after 10 mg/kg oral dose in rat. Format: functional.
The target of the next experiment is Adenosine A2 receptor (Rattus norvegicus, UniProt P29276+P30543). Put plainly: Binding affinity towards adenosine A2 receptor. Format: protein assay.
Experiment [4] has as its system Rattus norvegicus. The experiment can be described thus: Antihypertensive activity was measured as change in blood pressure for a 10-h after 10 mg/kg oral dose. Format: functional.

In the case of `COc1cc2c(c(OC)c1OC)C(Nc1ncnc3c1ncn3[C@@H]1O[C@H](CO)[C@@H](O)[C@H]1O)CC2` (stereo not given in full), the Ki is 1520 nM on Adenosine receptor A1 and 49710 nM on Adenosine A2 receptor. The Change in the experiment with Rattus norvegicus [1] and in the experiment with Rattus norvegicus [3] was below 10% in each case. The Ratio in experiment [2] was 32.6.

As to `CCOc1cccc2c1CCCC2Nc1ncnc2c1ncn2[C@@H]1O[C@H](CO)[C@@H](O)[C@H]1O` (stereo not given in full), the Ki stood at 41.2 nM on Adenosine receptor A1 and 396 nM on Adenosine A2 receptor. For the same molecule, the Change in the experiment with Rattus norvegicus [1] was below 10%; in the experiment on Rattus norvegicus [4], -42%. Further, in experiment [2], the Ratio came to 9.6.

As for `CCCOc1ccc2c(c1)C(Nc1ncnc3c1ncn3[C@@H]1O[C@H](CO)[C@@H](O)[C@H]1O)CCC2` (stereo not given in full), the Ki on Adenosine receptor A1 was 506 nM; on Adenosine A2 receptor, 48290 nM. For the same molecule, the Change is 36% in the experiment on Rattus norvegicus [1] and below 10% with Rattus norvegicus [3]. For the same molecule, in experiment [2], the Ratio was 95.5.

For `CC(C)Oc1cccc2c1CCCC2Nc1ncnc2c1ncn2[C@@H]1O[C@H](CO)[C@@H](O)[C@H]1O` (stereo not given in full), the Ki on Adenosine receptor A1 stood at 87.9 nM; on Adenosine A2 receptor, 642 nM. The figures for the Change with Rattus norvegicus [1] and in the experiment on Rattus norvegicus [3] were 24% and -19%, respectively. For the same molecule, the Ratio in experiment [2] was 7.3.

As for `COc1ccc2c(c1)CCCC2Nc1ncnc2c1ncn2[C@@H]1O[C@H](CO)[C@@H](O)[C@H]1O` (stereo not given in full), the Ki is 71.5 nM at Adenosine receptor A1 and 2947 nM at Adenosine A2 receptor. For the same molecule, the Change is listed as below 10% with Rattus norvegicus [1] and -30% with Rattus norvegicus [3]. Further, the Ratio in experiment [2] turned out to be 41.2.

Regarding `CCCOc1cccc2c1CCCC2Nc1ncnc2c1ncn2[C@@H]1O[C@H](CO)[C@@H](O)[C@H]1O` (stereo not given in full), the Ki on Adenosine receptor A1 came to 81.1 nM; on Adenosine A2 receptor, 327 nM. The Change in the experiment on Rattus norvegicus [1] is reported as 16%; with Rattus norvegicus [3], -27%. In addition, the Ratio in experiment [2] was 4.

For the molecule `OC[C@H]1O[C@@H](n2cnc3c(NC4CCCc5c(O)cccc54)ncnc32)[C@H](O)[C@@H]1O` (stereo not given in full), the Ki on Adenosine receptor A1 came to 20.4 nM; at Adenosine A2 receptor, 175 nM. Further, the Change with Rattus norvegicus [1] and in the experiment on Rattus norvegicus [3] was below 10% throughout. Further, in experiment [2], the Ratio is 8.6.

`OC[C@H]1OC(n2cnc3c(NCC4(O)CCCc5ccccc54)ncnc32)[C@H](O)[C@@H]1O` (stereo not given in full): the figures for the Ki on Adenosine receptor A1 and at Adenosine A2 receptor were 61.3 nM and 1922 nM, respectively. The Change in the experiment on Rattus norvegicus [1] and with Rattus norvegicus [3] was below 10% in each case. Moreover, the Ratio in experiment [2] was 31.4.

For the molecule `OC[C@H]1O[C@@H](n2cnc3c(NC4CCc5cc(O)ccc54)ncnc32)[C@H](O)[C@@H]1O` (stereo not given in full), the inhibition constant Ki on Adenosine receptor A1 worked out at 42.3 nM; on Adenosine A2 receptor, 769 nM. The figures for the Change with Rattus norvegicus [1] and in the experiment with Rattus norvegicus [3] were -11% and -17%, respectively. In experiment [2], the Ratio is 18.2.

In the case of `OC[C@H]1O[C@@H](n2cnc3c(NCC4CCc5ccccc54)ncnc32)[C@H](O)[C@@H]1O` (stereo not given in full), the Ki at Adenosine receptor A1 is 5.19 nM; on Adenosine A2 receptor it was 66.7 nM. Further, the values for the Change with Rattus norvegicus [1] and in the experiment on Rattus norvegicus [3] were -15% and -40%, respectively. Besides, the Ratio in experiment [2] is 12.9.

As to `OC[C@H]1O[C@@H](n2cnc3c(NC4CCSc5ccccc54)ncnc32)[C@H](O)[C@@H]1O` (stereo not given in full), the Ki at Adenosine receptor A1 worked out at 31.9 nM; at Adenosine A2 receptor, 58.3 nM. The Change is 29% in the experiment with Rattus norvegicus [1] and -23% in the experiment on Rattus norvegicus [3]. The Ratio in experiment [2] worked out at 1.83.

With `OC[C@H]1O[C@@H](n2cnc3c(NC4CCCc5ccc(OCc6ccccc6)cc54)ncnc32)[C@H](O)[C@@H]1O` (stereo not given in full), the Ki at Adenosine receptor A1 was found to be 7660 nM; on Adenosine A2 receptor it was 95100 nM. Moreover, the Change was 20% with Rattus norvegicus [1] and -30% with Rattus norvegicus [3]. For the same molecule, in experiment [2], the Ratio was found to be 12.4.

`OC[C@H]1O[C@@H](n2cnc3c(NC4CCc5cc(Cl)ccc54)ncnc32)[C@H](O)[C@@H]1O` (stereo not given in full): the figures for the Ki at Adenosine receptor A1 and on Adenosine A2 receptor were 41 nM and 1808 nM, respectively. For the same molecule, the Change in the experiment on Rattus norvegicus [1] and in the experiment with Rattus norvegicus [3] was -24% throughout. In addition, the Ratio in experiment [2] worked out at 44.

Regarding `CCOc1ccc2c(c1)CCC2Nc1ncnc2c1ncn2[C@@H]1O[C@H](CO)[C@@H](O)[C@H]1O` (stereo not given in full), the Ki at Adenosine receptor A1 turned out to be 33.4 nM; on Adenosine A2 receptor it was 7487 nM. The values for the Change in the experiment with Rattus norvegicus [1] and in the experiment with Rattus norvegicus [3] were -34% and -33%, respectively. Besides, the Ratio in experiment [2] came to 224.

Take `OC[C@H]1O[C@@H](n2cnc3c(NC4CCCc5ccccc5C4)ncnc32)[C@H](O)[C@@H]1O` (stereo not given in full): the Ki turned out to be 25.4 nM on Adenosine receptor A1 and 1234 nM at Adenosine A2 receptor. Moreover, the results for the Change in the experiment with Rattus norvegicus [1] and with Rattus norvegicus [3] were -32% and -22%, respectively. In addition, in experiment [2], the Ratio worked out at 48.7.

For `OC[C@H]1O[C@@H](n2cnc3c(NC4CCOc5ccccc54)ncnc32)[C@H](O)[C@@H]1O` (stereo not given in full), the Ki at Adenosine receptor A1 stood at 63.5 nM; on Adenosine A2 receptor it was 339 nM. Besides, the Change is on record as 21% with Rattus norvegicus [1] and -21% in the experiment with Rattus norvegicus [3]. The Ratio in experiment [2] was determined as 5.3.

For `OC[C@H]1O[C@@H](n2cnc3c(NCC4(O)CCc5ccccc54)ncnc32)[C@H](O)[C@@H]1O` (stereo not given in full), the Ki at Adenosine receptor A1 was 68 nM; on Adenosine A2 receptor it was 666 nM. Further, the Change is on record as 17% in the experiment with Rattus norvegicus [1] and -23% in the experiment on Rattus norvegicus [3]. Moreover, in experiment [2], the Ratio is 9.8.

In the case of `OC[C@H]1O[C@@H](n2cnc3c(NCC4CCCCc5ccccc54)ncnc32)[C@H](O)[C@@H]1O` (stereo not given in full), the Ki on Adenosine receptor A1 turned out to be 118 nM; on Adenosine A2 receptor it was 857 nM. Also, the Change in the experiment with Rattus norvegicus [1] and in the experiment on Rattus norvegicus [3] was below 10% each time. The Ratio in experiment [2] is 7.3.

In the case of `OC[C@H]1O[C@@H](n2cnc3c(NC4Cc5ccccc5C4)ncnc32)[C@H](O)[C@@H]1O`, the Ki is 23.8 nM at Adenosine receptor A1 and 1642 nM on Adenosine A2 receptor. Also, the figures for the Change with Rattus norvegicus [1] and with Rattus norvegicus [3] were -47% and -29%, respectively. Moreover, the Ratio in experiment [2] came to 68.9.

For `CC(C)COc1ccc2c(c1)CCC2Nc1ncnc2c1ncn2[C@@H]1O[C@H](CO)[C@@H](O)[C@H]1O` (stereo not given in full), the Ki is 28 nM on Adenosine receptor A1 and 9038 nM at Adenosine A2 receptor. The Change was -21% in the experiment with Rattus norvegicus [1] and -39% with Rattus norvegicus [3]. Also, the Ratio in experiment [2] came to 323.

Regarding `OC[C@H]1OC(n2cnc3c(NCC4=CCCCc5ccccc54)ncnc32)[C@H](O)[C@@H]1O` (stereo not given in full), the Ki at Adenosine receptor A1 is 404 nM; on Adenosine A2 receptor, 1821 nM. For the same molecule, the Change in the experiment with Rattus norvegicus [1] and in the experiment with Rattus norvegicus [3] was below 10% in each case. Further, the Ratio in experiment [2] amounted to 4.5.

`OC[C@H]1O[C@@H](n2cnc3c(NC4COc5ccccc5C4)ncnc32)[C@H](O)[C@@H]1O` (stereo not given in full): the Ki was 13.6 nM on Adenosine receptor A1 and 496 nM at Adenosine A2 receptor. The results for the Change in the experiment on Rattus norvegicus [1] and in the experiment with Rattus norvegicus [4] were -33% and -38%, respectively. For the same molecule, in experiment [2], the Ratio was determined as 36.5.

In the case of `OC[C@H]1O[C@@H](n2cnc3c(NCC4=CCCc5ccccc54)ncnc32)[C@H](O)[C@@H]1O`, the Ki at Adenosine receptor A1 came to 99.8 nM; at Adenosine A2 receptor, 53.4 nM. Moreover, the Change in the experiment with Rattus norvegicus [1] was 16%; in the experiment with Rattus norvegicus [3] it was -39%. For the same molecule, in experiment [2], the Ratio is 0.53.

Regarding `OC[C@H]1O[C@@H](n2cnc3c(N[C@@H]4CCc5ccccc54)ncnc32)[C@H](O)[C@@H]1O`, the Ki on Adenosine receptor A1 was 22.2 nM; at Adenosine A2 receptor, 412 nM. The Change in the experiment on Rattus norvegicus [1] is on record as -18%; with Rattus norvegicus [3], -37%. In addition, the Ratio in experiment [2] amounted to 18.6.

By Ki is commonly meant the dissociation constant of the complex between target and ligand, obtained from inhibition or displacement. Read a low Ki as a stronger hold on the target.
